Columns and labels:
Format in all cases: cell-based
human TRPC3 = biological target: T1, human TRPC3 (Homo sapiens, UniProt Q13507); assay: Fluorescence Ca2+ assay in TRPC3-HEK293 cells
T1 sequence (Q13507 1-921): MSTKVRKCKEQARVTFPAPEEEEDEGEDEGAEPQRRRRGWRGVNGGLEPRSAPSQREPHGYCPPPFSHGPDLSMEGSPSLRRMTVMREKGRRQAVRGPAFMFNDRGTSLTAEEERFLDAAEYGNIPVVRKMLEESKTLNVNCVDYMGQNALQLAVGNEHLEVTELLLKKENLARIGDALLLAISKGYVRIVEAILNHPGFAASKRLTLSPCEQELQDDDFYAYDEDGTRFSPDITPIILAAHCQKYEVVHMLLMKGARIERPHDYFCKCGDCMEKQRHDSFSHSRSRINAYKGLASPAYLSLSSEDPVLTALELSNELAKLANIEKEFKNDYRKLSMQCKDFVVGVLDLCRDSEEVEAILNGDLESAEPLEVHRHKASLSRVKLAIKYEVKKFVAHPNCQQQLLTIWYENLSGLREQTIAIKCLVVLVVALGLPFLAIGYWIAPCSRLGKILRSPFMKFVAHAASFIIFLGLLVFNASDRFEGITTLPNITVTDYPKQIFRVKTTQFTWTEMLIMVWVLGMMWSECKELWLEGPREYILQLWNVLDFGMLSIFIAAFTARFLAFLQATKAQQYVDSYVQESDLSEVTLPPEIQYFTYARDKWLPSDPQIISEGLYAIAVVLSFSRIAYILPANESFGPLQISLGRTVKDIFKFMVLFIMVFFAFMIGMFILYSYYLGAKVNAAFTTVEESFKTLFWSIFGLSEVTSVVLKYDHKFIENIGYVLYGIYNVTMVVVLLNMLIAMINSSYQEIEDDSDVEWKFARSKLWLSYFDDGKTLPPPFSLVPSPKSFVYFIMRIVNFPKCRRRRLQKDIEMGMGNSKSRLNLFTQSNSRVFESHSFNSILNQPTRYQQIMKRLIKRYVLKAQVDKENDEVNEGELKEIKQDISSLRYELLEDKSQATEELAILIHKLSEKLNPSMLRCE

mouse TRPC4 = biological target: T2, mouse TRPC4 (Mus musculus, UniProt Q9QUQ5); assay: Selectivity assay in HEK293 cells co-expressing TRPC4 and μ-opioid receptor; conditions: induced by DAMGO 1 μM
T2 sequence (Q9QUQ5 1-974): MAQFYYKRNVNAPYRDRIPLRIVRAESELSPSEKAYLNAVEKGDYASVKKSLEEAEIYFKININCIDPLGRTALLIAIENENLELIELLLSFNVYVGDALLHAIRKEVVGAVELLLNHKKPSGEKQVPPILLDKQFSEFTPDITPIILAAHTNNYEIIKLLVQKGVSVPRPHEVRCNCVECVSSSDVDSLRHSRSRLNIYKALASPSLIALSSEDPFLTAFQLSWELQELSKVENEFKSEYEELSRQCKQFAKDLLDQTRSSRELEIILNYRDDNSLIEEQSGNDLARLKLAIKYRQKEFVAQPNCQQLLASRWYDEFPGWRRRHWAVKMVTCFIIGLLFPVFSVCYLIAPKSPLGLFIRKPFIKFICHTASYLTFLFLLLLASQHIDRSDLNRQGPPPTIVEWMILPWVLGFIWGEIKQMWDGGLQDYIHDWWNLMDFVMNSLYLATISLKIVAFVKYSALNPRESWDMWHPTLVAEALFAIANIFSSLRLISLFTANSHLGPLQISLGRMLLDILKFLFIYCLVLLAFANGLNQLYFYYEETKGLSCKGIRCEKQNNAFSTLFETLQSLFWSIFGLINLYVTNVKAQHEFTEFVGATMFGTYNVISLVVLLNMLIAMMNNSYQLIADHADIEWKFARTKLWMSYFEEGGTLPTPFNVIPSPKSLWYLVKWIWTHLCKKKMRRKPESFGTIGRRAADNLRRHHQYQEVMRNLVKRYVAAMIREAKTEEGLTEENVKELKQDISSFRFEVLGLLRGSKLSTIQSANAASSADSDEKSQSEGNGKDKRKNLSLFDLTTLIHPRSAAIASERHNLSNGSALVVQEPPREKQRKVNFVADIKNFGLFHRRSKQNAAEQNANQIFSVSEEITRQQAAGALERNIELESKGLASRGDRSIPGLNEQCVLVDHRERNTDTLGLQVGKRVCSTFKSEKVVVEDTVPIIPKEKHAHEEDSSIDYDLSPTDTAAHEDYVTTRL

TRPV3 = biological target: T3, TRPV3 (Homo sapiens, UniProt Q8NET8); assay: Selectivity Ca2+ assay in TRPV3-expressing HEK293 cells; conditions: 1s 50 μM; Fluo-8
T3 sequence (Q8NET8 1-790): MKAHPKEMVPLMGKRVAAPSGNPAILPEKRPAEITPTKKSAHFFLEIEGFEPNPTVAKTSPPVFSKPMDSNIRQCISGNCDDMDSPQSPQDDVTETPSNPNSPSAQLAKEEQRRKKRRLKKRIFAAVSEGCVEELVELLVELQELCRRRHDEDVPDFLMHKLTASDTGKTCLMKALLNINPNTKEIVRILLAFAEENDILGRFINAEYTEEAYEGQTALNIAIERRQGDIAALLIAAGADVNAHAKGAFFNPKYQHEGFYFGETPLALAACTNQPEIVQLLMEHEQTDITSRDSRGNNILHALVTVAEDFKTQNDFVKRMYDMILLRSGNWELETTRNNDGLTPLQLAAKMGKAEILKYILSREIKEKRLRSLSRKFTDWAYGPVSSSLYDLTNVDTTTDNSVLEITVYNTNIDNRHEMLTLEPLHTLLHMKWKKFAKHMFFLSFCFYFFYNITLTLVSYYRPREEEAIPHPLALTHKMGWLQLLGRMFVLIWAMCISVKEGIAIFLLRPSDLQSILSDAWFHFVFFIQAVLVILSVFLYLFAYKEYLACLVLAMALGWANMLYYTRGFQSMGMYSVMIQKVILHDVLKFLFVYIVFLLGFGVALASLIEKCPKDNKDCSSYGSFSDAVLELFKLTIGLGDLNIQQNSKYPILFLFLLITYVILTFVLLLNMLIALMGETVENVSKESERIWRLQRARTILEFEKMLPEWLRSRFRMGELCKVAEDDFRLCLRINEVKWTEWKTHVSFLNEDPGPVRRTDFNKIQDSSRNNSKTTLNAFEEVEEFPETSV

Structure (SMILES): COc1cccc2sc(N(CCN(C)C)C(=O)c3ccc4c(c3)CCCC4)nc12 [Compound 1s, N-(2-(dimethylamino)ethyl)-N-(4-methoxybenzo[d]thiazol-2-yl)-5,6,7,8-tetrahydronaphthalene-2-carboxamide]
- IC50 (human TRPC3): 3.3 ± 0.13 µM
- Effect on TRPC4 (mouse TRPC4): only partially inhibited
- Effect on agonist-induced Ca2+ response, TRPV3 (TRPV3): did not significantly affect
